# From PMC11484861 (Nature Communications, 2024)
# Ends that are not written are not given here.
# How the values were obtained:
# [1] = tested on: SARS-CoV-2 M protein level; format: cell-based, human
# [2] = tested on: TOMM22 level; format: cell-based, human; settings: for effects of SQSTM1 on TOMM22 degradation: PDPK1-KO HEK293T, even in the presence of PDPK1, Mdivi-1 2.5 μM, CQ 50 μM, wortmannin 5 μM, 4 h (Fig 2G)
# [3] = tested on: binding of SQSTM1 to M; format: cell-based, human
# [4] = tested on: binding of SQSTM1 to TOMM22; format: cell-based, human
# [5] = tested on: MAVS level; format: cell-based, human
# [6] = tested on: phosphorylation of SQSTM1 at T138; format: cell-based, human
# [7] = tested on: mitophagy; format: cell-based, human
# [8] = tested on: IFNB1 mRNA expression; format: cell-based, human
# [9] = tested on: IFNB1 mRNA expression; format: cell-based, human; remark: listed apart in the source
# [10] = tested on: IFNB1 mRNA expression; design: species or system mice; settings: mouse, in vivo
# [11] = tested on: PEDV; format: cell-based
# [12] = tested on: PEDV; format: cell-based; remark: listed apart in the source
# [13] = molecular target: GFP-SQSTM1 (Homo sapiens, UniProt Q13501); assay: biochemical; format: binding
# [14] = tested on: IFNB1 mRNA expression; format: cell-based, human; settings: HEK293T, presence vs absence of poly (I:C); P = 0.001 (Fig 6A)
# [15] = molecular target: GFP-PDPK1 (human (cloned from HEK293T cells)) (UniProt O15530); assay: MST
# Chain of GFP-PDPK1 (human (cloned from HEK293T cells)) (O15530 whole entry): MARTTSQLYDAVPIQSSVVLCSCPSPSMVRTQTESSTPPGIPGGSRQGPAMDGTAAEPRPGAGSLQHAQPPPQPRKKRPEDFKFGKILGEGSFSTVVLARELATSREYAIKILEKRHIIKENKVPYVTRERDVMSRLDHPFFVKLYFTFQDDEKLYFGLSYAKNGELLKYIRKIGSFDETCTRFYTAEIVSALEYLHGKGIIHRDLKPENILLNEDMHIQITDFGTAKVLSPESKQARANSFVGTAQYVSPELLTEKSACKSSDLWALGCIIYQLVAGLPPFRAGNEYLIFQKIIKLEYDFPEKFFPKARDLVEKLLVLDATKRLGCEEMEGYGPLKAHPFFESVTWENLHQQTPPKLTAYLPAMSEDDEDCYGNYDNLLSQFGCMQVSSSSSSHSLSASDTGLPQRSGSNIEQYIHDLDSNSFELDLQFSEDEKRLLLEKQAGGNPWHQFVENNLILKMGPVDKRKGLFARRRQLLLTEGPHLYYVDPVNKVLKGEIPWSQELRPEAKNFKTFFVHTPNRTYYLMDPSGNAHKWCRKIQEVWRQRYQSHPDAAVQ
compound,measurement,setting,value
"CCN(CC)CCCC(C)Nc1ccnc2cc(Cl)ccc12 (stereo not drawn) [CQ, chloroquine]",effects of SQSTM1 on M degradation,[1],completely abolished
same,effects of SQSTM1 on TOMM22 degradation,[2],completely abolished
NCC(=O)Nc1ccc(-n2nc(C(F)(F)F)cc2-c2ccc3c(ccc4ccccc43)c2)cc1 [OSU-03012],binding of SQSTM1 to M,[3],increased
same,binding of SQSTM1 to TOMM22,[4],decreased
same,M levels,[1],further decreased
same,levels of TOMM22 decreased by PM or M expression,[2]; Fig 5B,restored
same,TOMM22 levels,"[2]; SQSTM1-KO cells with SQSTM1 expression, compared with control group (Fig S2J)",restored
same,levels of MAVS decreased by PM or M expression,[5],restored
same,M/PM-induced phosphorylation of SQSTM1 at T138,[6],inhibited
same,phosphorylation of SQSTM1 at T138,[6],blocked
same,decrease in GFP fluorescence of RFP-GFP-Mito caused by SQSTM1 expression,[7],reversed the decrease
same,"effect of M on the shift in the green signal to a red signal (RFP-GFP-Mito, mitophagy)",[7],reversed
same,IFNB1 expression during PEDV infection in cells,[8],restored
same,IFNB1 expression during VSV-M infection in cells,[9],restored
same,IFNB1 expression in lungs of VSV-M-infected mice,[10],restored
same,PEDV M protein expression during PEDV infection,[11],reduced
same,PEDV replication / viral titer (TCID50) in cells,[12],attenuated
COC[C@H]1OC(=O)c2coc3c2[C@@]1(C)C1=C(C3=O)[C@@H]2CCC(=O)[C@@]2(C)C[C@H]1OC(C)=O [wortmannin],effects of SQSTM1 on M degradation,[1],completely abolished
same,effects of SQSTM1 on TOMM22 degradation,[2],completely abolished
Mdivi-1,effects of SQSTM1 on M degradation,[1],not M degradation
same,effects of SQSTM1 on TOMM22 degradation,[2],only blocked
SMWSFNPETN [M-CD],Kd,[13],115 ± 28 nM
poly (I:C),IFNB1 mRNA expression,[14],substantially increased
unlabeled M-β3-5 (MST ligand) (from UniProt P0DTC5 1-222) (domain or fragment),Kd,[15],71 nM
